Tests used:
[1] = tested on: histone H3 methylation at lysine 9 (H3-K9); test: Western blot of histone H3 lysine 9 methylation; type: cell-based, human; settings: HCT116 or MCF-7 cells, 5 μM, 48 and 72 hours
Method: Cell lines used in these examples were purchased from the American Type Culture Collection (Manassas, Va.). Cells were maintained in DMEM supplemented with 10% fetal bovine serum with glutamine, penicillin, and streptomycin. For drug treatment, cells were seeded the day before the drug treatment. Cells were treated with 5 μM 3-Deazaneplanocin A or 2 μM 5-aza-2'-deoxycytidine (5-AzaC; Sigma) for 72 hours and trichostatin A (TSA; Sigma) at 100 nM for 24 hours. For co-treatment of cells with 5-AzaC and TSA, 5-Aza was added for 48 hours and followed by TSA for 24 hours. Cell pellets were first lysed in RadioImmuno Precipitation Assay (RIPA) buffer, consisting of an aqueous solution of 25 mM Tris-HCl pH 7.6, 150 mM NaCl, 1% Nonidet-P 40 (NP-40), 1% sodium deoxycholate and 0.1% sodium dodecylsulfate (SDS), before further sonicated using a tissue homogeniser to release all the proteins. Equal amounts of protein were separated on SDS-polyacrylamide gels and transferred to polyvinylidene difluoride (PVDF) membranes. The blots were probed with antibodies against: EED (07-368), SUZ12 (07-379), SUV39H1 (07-550), BMI1 (05-637), tri-methylated H3-K27 (07-449), tri-methylated H3-K9 (07-442) and Acetyl-Histone H3 (06-599), and were purchased from Upstate. EZH2 (AC22) and Histone H3 (3H1) were from Cell Signaling. […]

[2] = tested on: MCF-7 and HCT116 cells; test: Mitochondrial membrane potential by JC-1 staining and flow cytometry; type: cell-based; settings: JC-1, flow cytometry
Text: FIG. 3B depicts the detection of mitochondrial membrane potential of HCT116 cells by staining with the dye 5,5′,6,6′-tetrachloro-1,1′,3,3′-tetraethyl-benzamidazolocarbocyanin iodide (JC-1).
FIG. 3C compares the apoptosis in HCT116 cells (right hand side, data of FIG. 3B) to the apoptosis in MCF-7 cells (left hand side).
Cells were trypsinised and washed with PBS and fixed in 70% ethanol and processed for propidium iodide staining and FACS analysis. For the caspase 3 activity assay and mitochondrial membrane potential detection, cells were stained with anti-active caspase 3 and JC-1, respectively, according to the manufacturer's instructions (BD Bioscience).
To elucidate the mechanisms by which 3-deazaneplanocin induces cell death, flow cytometry was used to analyse the loss of mitochondrial membrane potential (ΔΨm) in MCF-7 and HCT116 cells after 3-deazaneplanocin treatment (FIGS. 3B & 3C).

[3] = tested on: CC33D cells; test: Microscopy examination of cell death in primary colon epithelial cells; type: cell-based; settings: normal primary colon epithelial CC33D cells compared to HCT116
Text: To determine whether 3-deazaneplanocin preferentially induces apoptosis in cancer cells, the apoptosis induction between MCF-7 cells and the non-cancerous breast epithelial MCF10A cells was compared for various periods of time. […] In addition, normal primary colon epithelial CC33D cells, like MCF10A cells, were also resistant to 3-deazaneplanocin treatment compared to colorectal cancer HCT116 cell, as evaluated by microscopy examination (FIGS. 3G & 3H).

Compound: Nc1nccc2c1ncn2C1C=C(CO)C(O)C1O (stereo not drawn) [3-deazaneplanocin, 5-(4-amino-1H-imidazo[4,5-c]pyridin-1-yl)-3-(hydroxymethyl)-3-cyclopentene-1,2-diol]
- histone H3 methylation at lysine 9 (H3-K9) [1]: not affected
- loss of mitochondrial membrane potential (ΔΨm) [2]: marked increase in the percentage of cells with lower ΔΨm
- sensitivity to treatment, microscopy examination [3]: resistant
